Where two headings read alike, the source gives them in different places.
What was measured:
[1] = Method in brief: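 Each compound (1 uM) is incubated in duplicate with 0.5 mg/mL liver microsomal protein from dog, rat or human plus NADPH-regenerating system. Samples taken at 2, 12, 25, 45 and 65 minutes are deproteinised and quantified by LC/MS/MS. Half-life gives Clint.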
[2] = system: HIV-1 (IIIB) in MT-4 cells; test: MT-4 HIV assay; type: cell-based; details: Human immunodeficiency virus 1, MT4, 120 h; HIV-1 (IIIB), MT-4 cells, 5 days, Cell Titer Glo; read-out: EC50
Method in brief: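 Antiviral activity was read by Cell Titer Glo after a 5-day, 37 °C culture of MT-4 cells pre-infected with a 1:250 dilution of HIV-1 (IIIB). Compounds were tested as threefold dilution series in complete RPMI. Controls were no drug, mock infection and 5 uM AZT.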

[3] = human liver microsomes 0.5 mg/mL, 1 uM compound, NADPH
[4] = rat liver microsomes 0.5 mg/mL, 1 uM compound, NADPH

SMILES	Human Pred Cl. ([1]; human, microsomes)	Rat. Pred. Cl. ([1]; rat, microsomes)	EC50 [2]	Human Pred Cl. [1, 3]	Rat. Pred. Cl. [1, 4]
COC(=O)N[C@H](C(=O)N[C@@H](Cc1ccc(C#Cc2ccc(N3CC4CCC(C3)N4S(C)(=O)=O)nc2)cc1)[C@@H](O)CN(Cc1c(F)cc(-c2cnn(C(F)F)c2)cc1F)NC(=O)[C@@H](NC(=O)OC)C(C)(C)C(F)(F)F)C(C)(C)C(F)(F)F [Example 70, Methyl ((5S,8S,9S,14S)-11-(4-(1-(difluoromethyl)-1H-pyrazol-4-yl)-2,6-difluorobenzyl)-16,16,16-trifluoro-9-hydroxy-15,15-dimethyl-8-(4-((6-(8-(methylsulfonyl)-3,8-diazabicyclo[3.2.1]octan-3-yl)pyridin-3-yl)ethynyl)benzyl)-3,6,13-trioxo-5-(1,1,1-trifluoro-2-methylpropan-2-yl)-2-oxa-4,7,11,12-tetraazahexadecan-14-yl)carbamate]	<0.11 L/H/kg	<0.18 L/H/kg	4.79 nM		
COC(=O)N[C@H](C(=O)N[C@@H](Cc1ccc(C#Cc2ccc(N3CC4CCC(C3)N4C3(C)COC3)nc2)cc1)[C@@H](O)CN(Cc1c(F)cc(-c2ccn(C(F)F)n2)cc1F)NC(=O)[C@@H](NC(=O)OC)C(C)(C)C(F)(F)F)C(C)(C)C(F)(F)F [Example 144, Methyl ((5S,8S,9S,14S)-11-(4-(1-(difluoromethyl)-1H-pyrazol-3-yl)-2,6-difluorobenzyl)-16,16,16-trifluoro-9-hydroxy-15,15-dimethyl-8-(4-((6-(8-(3-methyloxetan-3-yl)-3,8-diazabicyclo[3.2.1]octan-3-yl)pyridin-3-yl)ethynyl)benzyl)-3,6,13-trioxo-5-(1,1,1-trifluoro-2-methylpropan-2-yl)-2-oxa-4,7,11,12-tetraazahexadecan-14-yl)carbamate]	0.95 L/H/kg		5.12 nM		
COC(=O)N[C@H](C(=O)N[C@@H](Cc1ccc(C#Cc2ccc(N3CCN([C@@H]4CCOC4)CC3)nc2)cc1)[C@@H](O)CN(Cc1c(F)cc(-c2ccn(C(F)F)n2)cc1F)NC(=O)[C@@H](NC(=O)OC)C(C)(C)C(F)(F)F)C(C)(C)C(F)(F)F [Example 146, Methyl ((5S,8S,9S,14S)-11-(4-(1-(difluoromethyl)-1H-pyrazol-3-yl)-2,6-difluorobenzyl)-16,16,16-trifluoro-9-hydroxy-15,15-dimethyl-3,6,13-trioxo-8-(4-((6-(4-((R)-tetrahydrofuran-3-yl)piperazin-1-yl)pyridin-3-yl)ethynyl)benzyl)-5-(1,1,1-trifluoro-2-methylpropan-2-yl)-2-oxa-4,7,11,12-tetraazahexadecan-14-yl)carbamate]			8.17 nM	<0.11 L/H/kg	
COC(=O)N[C@H](C(=O)N[C@@H](Cc1ccc(C#Cc2ccc(N3CC4CCC(C3)N4C3COC3)nc2C)cc1)[C@@H](O)CN(Cc1c(F)cc(-c2ccccn2)cc1F)NC(=O)[C@@H](NC(=O)OC)C(C)(C)C(F)(F)F)C(C)(C)C(F)(F)F [Example 78, Methyl ((5S,8S,9S,14S)-11-(2,6-difluoro-4-(pyridin-2-yl)benzyl)-16,16,16-trifluoro-9-hydroxy-15,15-dimethyl-8-(4-((2-methyl-6-(8-(oxetan-3-yl)-3,8-diazabicyclo[3.2.1]octan-3-yl)pyridin-3-yl)ethynyl)benzyl)-3,6,13-trioxo-5-(1,1,1-trifluoro-2-methylpropan-2-yl)-2-oxa-4,7,11,12-tetraazahexadecan-14-yl)carbamate]	<0.11 L/H/kg	<0.18 L/H/kg	6.27 nM		
COC(=O)N[C@H](C(=O)N[C@@H](Cc1ccc(C#Cc2ccc(-c3cn4c(n3)CN(C)C(=O)C4)cc2)cc1)[C@@H](O)CN(Cc1c(F)cc(-c2ccn(C(F)F)n2)cc1F)NC(=O)[C@@H](NC(=O)OC)C(C)(C)C(F)(F)F)C(C)(C)C(F)(F)F [Example 134, Methyl ((5S,8S,9S,14S)-11-(4-(1-(difluoromethyl)-1H-pyrazol-3-yl)-2,6-difluorobenzyl)-16,16,16-trifluoro-9-hydroxy-15,15-dimethyl-8-(4-((4-(7-methyl-6-oxo-5,6,7,8-tetrahydroimidazo[1,2-a]pyrazin-2-yl)phenyl)ethynyl)benzyl)-3,6,13-trioxo-5-(1,1,1-trifluoro-2-methylpropan-2-yl)-2-oxa-4,7,11,12-tetraazahexadecan-14-yl)carbamate]			5.52 nM	<0.11 L/H/kg	<0.18 L/H/kg
COC(=O)N[C@H](C(=O)N[C@@H](Cc1ccc(C#Cc2ccc(N3CC4CCC(C3)O4)nc2)cc1)[C@@H](O)CN(Cc1c(F)cc(-c2cnn(C(F)F)c2)cc1F)NC(=O)[C@@H](NC(=O)OC)C(C)(C)C(F)(F)F)C(C)(C)C(F)(F)F [Example 68, Methyl ((5S,8S,9S,14S)-8-(4-((6-(8-oxa-3-azabicyclo[3.2.1]octan-3-yl)pyridin-3-yl)ethynyl)benzyl)-11-(4-(1-(difluoromethyl)-1H-pyrazol-4-yl)-2,6-difluorobenzyl)-16,16,16-trifluoro-9-hydroxy-15,15-dimethyl-3,6,13-trioxo-5-(1,1,1-trifluoro-2-methylpropan-2-yl)-2-oxa-4,7,11,12-tetraazahexadecan-14-yl)carbamate]			7.25 nM	<0.11 L/H/kg	0.61 L/H/kg
COC(=O)N[C@H](C(=O)NN(Cc1c(F)cc(-c2ccccn2)cc1F)C[C@H](O)[C@H](Cc1ccc(C#Cc2ccc(N3CC4CCC(C3)N4C3COC3)nc2)cc1)NC(=O)[C@@H](NC(=O)OC)C(C)(C)C(F)(F)F)C(C)(C)C [Example 53, Methyl ((5S,8S,9S,14S)-11-(2,6-difluoro-4-(pyridin-2-yl)benzyl)-9-hydroxy-15,15-dimethyl-8-(4-((6-(8-(oxetan-3-yl)-3,8-diazabicyclo[3.2.1]octan-3-yl)pyridin-3-yl)ethynyl)benzyl)-3,6,13-trioxo-5-(1,1,1-trifluoro-2-methylpropan-2-yl)-2-oxa-4,7,11,12-tetraazahexadecan-14-yl)carbamate]	0.51 L/H/kg	0.2 L/H/kg	2.98 nM		
CC(C)([C@H](NC(=O)C1CC1)C(=O)N[C@@H](Cc1ccc(-c2cnn(C(F)F)c2)cc1)[C@@H](O)CN(Cc1c(F)cc(-c2cnn(C(F)F)c2)cc1F)NC(=O)[C@@H](NC(=O)C1CC1)C(C)(C)C(F)(F)F)C(F)(F)F [Example 214, N—((S)-1-(2-((2S,3S)-3-((S)-2-(cyclopropanecarboxamido)-4,4,4-trifluoro-3,3-dimethylbutanamido)-4-(4-(1-(difluoromethyl)-1H-pyrazol-4-yl)phenyl)-2-hydroxybutyl)-2-(4-(1-(difluoromethyl)-1H-pyrazol-4-yl)-2,6-difluorobenzyl)hydrazinyl)-4,4,4-trifluoro-3,3-dimethyl-1-oxobutan-2-yl)cyclopropanecarboxamide]			12.3 nM	<0.11 L/H/kg	<0.18 L/H/kg
